Read-outs that look alike come from different tables or passages of the source. Each block holds one molecule with its values, some of them ahead of it.
Tests used:
[1] = biological target: T1, c-Met (cytoplasmic domain) (Homo sapiens, UniProt P08581); assay: c-Met Kinase Assay (same methods as for ALK, with modifications); assay type: biochemical
T1 construct: 10 ng/mL c-Met (cytoplasmic domain, Invitrogen Corporation #PV3143); purchased Invitrogen Corporation PV3143
Outline: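 Steps: coat wells with PLC-γ (10 μg/mL, Tris-buffered saline); add 10 ng/mL c-Met cytoplasmic domain to initiate; incubate 15 min, 37° C; detect phosphoproduct via Eu-N1 PT66 antibody.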

[2] = biological target: T2, baculovirus-expressed ALK (Homo sapiens, UniProt Q9UM73); assay: ALK Kinase Assay (ELISA-type, time-resolved fluorescence); assay type: biochemical
T2 construct: host or cells: baculovirus expression system
T2 sequence (Q9UM73 19-1620): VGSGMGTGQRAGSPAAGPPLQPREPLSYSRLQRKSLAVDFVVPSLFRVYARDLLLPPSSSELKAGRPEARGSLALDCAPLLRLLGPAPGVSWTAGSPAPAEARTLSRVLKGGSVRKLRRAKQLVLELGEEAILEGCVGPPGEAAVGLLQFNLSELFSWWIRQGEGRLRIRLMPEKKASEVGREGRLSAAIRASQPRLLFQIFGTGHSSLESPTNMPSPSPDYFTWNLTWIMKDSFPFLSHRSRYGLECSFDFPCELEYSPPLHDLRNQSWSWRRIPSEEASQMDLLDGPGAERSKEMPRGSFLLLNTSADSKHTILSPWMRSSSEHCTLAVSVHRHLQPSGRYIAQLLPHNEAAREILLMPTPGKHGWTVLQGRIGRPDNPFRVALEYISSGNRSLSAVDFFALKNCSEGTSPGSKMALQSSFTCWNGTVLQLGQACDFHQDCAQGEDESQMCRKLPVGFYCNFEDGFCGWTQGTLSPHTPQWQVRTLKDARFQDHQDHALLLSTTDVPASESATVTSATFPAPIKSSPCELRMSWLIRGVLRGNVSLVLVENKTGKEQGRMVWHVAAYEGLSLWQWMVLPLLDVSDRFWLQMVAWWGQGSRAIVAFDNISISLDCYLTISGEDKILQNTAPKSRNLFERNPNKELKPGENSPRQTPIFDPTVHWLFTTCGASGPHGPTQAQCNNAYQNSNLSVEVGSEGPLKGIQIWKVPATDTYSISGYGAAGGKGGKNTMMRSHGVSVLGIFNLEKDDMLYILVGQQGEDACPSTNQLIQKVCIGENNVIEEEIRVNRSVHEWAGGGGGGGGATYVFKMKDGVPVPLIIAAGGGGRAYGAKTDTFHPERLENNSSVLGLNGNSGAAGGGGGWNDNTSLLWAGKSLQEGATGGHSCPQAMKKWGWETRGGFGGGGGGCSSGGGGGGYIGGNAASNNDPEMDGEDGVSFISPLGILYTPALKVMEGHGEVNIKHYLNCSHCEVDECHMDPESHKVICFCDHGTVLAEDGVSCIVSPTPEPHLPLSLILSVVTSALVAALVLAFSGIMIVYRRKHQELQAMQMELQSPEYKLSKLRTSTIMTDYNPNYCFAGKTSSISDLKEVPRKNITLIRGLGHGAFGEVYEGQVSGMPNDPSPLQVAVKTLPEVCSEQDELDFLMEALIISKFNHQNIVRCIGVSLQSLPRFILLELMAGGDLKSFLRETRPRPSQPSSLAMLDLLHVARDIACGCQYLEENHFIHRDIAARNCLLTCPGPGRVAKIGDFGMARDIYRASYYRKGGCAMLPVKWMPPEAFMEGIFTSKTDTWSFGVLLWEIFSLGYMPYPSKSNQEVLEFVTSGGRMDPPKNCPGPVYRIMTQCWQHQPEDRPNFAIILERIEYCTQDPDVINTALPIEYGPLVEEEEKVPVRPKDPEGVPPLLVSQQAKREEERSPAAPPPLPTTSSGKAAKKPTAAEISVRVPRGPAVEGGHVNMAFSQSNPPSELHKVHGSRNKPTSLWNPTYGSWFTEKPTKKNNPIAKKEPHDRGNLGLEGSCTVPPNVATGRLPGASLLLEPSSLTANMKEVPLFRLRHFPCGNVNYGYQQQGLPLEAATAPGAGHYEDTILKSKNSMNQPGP
Outline: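 Wells were coated with phospholipase C-γ at 10 μg/mL in Tris-buffered saline. Adding 30 ng/ml enzyme started the reaction, which ran at 37° C for 15 minutes before Eu-N1 PT66 antibody detection. Percent inhibition versus log10 concentration gave IC50 by variable-slope fit.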

[3] = 1 μM ATP (Km level), 10 ng/mL c-Met, read-out: cMet Activity (c-Met kinase inhibition, IC50 class)
[4] = 1 μM ATP (Km level), 30 ng/ml ALK, 37° C., 15 minutes, read-out: ALK Activity (ALK kinase inhibition, IC50 class)
[5] = c-Met kinase inhibition, 1 μM ATP, read-out: cMet Activity
[6] = ALK kinase inhibition, 1 μM ATP, read-out: ALK Activity
[7] = c-Met kinase inhibition, 1 μM ATP (Km level), read-out: cMet Activity
[8] = ALK kinase inhibition, 1 μM ATP (Km level), read-out: ALK Activity
[9] = 1 μM ATP (Km level), read-out: cMet Activity (c-Met Kinase Inhibition, IC50)
[10] = 1 μM ATP (Km level), read-out: ALK Activity (ALK Kinase Inhibition, IC50)

T1 sequence (P08581 956-1390 limits assumed): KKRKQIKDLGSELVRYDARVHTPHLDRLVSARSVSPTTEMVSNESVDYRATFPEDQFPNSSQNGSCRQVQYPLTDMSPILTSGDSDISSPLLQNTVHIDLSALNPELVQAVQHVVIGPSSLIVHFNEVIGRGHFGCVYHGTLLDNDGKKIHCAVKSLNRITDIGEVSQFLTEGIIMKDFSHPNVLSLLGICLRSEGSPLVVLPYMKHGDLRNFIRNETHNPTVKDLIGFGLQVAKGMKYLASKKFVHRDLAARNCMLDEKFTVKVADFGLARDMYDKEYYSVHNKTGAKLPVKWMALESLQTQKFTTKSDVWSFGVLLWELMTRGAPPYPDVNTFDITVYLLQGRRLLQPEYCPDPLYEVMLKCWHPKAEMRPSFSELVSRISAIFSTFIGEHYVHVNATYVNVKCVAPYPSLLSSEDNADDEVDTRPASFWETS

IC50 [1, 3]: 1 to 10 µM
IC50 [2, 4]: < 0.1 µM
Molecule: COc1cc2c(cc1Nc1ncc(Cl)c(Nc3ccccc3S(C)(=O)=O)n1)CCN(CC(=O)N(C)C)CC2 [Example 1142, 2-{7-[5-Chloro-4-(2-methanesulfonyl-phenylamino)-pyrimidin-2-ylamino]-8-methoxy-1,2,4,5-tetrahydro-benzo[d]azepin-3-yl}-N,N-dimethyl-acetamide]

IC50 [1, 5]: < 0.1 µM
IC50 [2, 6]: 0.1 to 1 µM
Molecule: C#CCNC(=O)c1cccc(F)c1Nc1nc(Nc2ccc3c(c2)N(C(=O)CN)CCCC3(C)C)ncc1Cl [Example 1619, 2-{2-[1-(2-Amino-acetyl)-5,5-dimethyl-2,3,4,5-tetrahydro-1H-benzo[b]azepin-8-ylamino]-5-chloro-pyrimidin-4-ylamino}-3-fluoro-N-prop-2-ynyl-benzamide]

IC50 [1, 5]: > 10 µM
IC50 [2, 6]: 1 to 10 µM
Molecule: CNC(=O)c1ccccc1Nc1nc(Nc2c(OC)ccc3c2CCOC(=O)N3C)ncc1Cl [Example 1517, 2-[5-Chloro-2-(2-methoxy-5-methyl-6-oxo-5,6,8,9-tetrahydro-7-oxa-5-aza-benzocyclohepten-1-ylamino)-pyrimidin-4-ylamino]-N-methyl-benzamide]

IC50 [1, 5]: < 0.1 µM
IC50 [2, 6]: 0.1 to 1 µM
Molecule: CNC(=O)c1sc(Cl)c(C)c1Nc1nc(Nc2ccc3c(c2)CCOC(=O)N3C)ncc1Cl [Example 1770, 5-Chloro-3-[5-chloro-2-(5-methyl-6-oxo-5,6,8,9-tetrahydro-7-oxa-5-aza-benzocyclohepten-2-ylamino)-pyrimidin-4-ylamino]-4-methyl-thiophene-2-carboxylic acid methylamide]

IC50 [1, 3]: < 0.1 µM
IC50 [2, 4]: < 0.1 µM
Molecule: COCCN1CCc2ccc(Nc3ncc(Cl)c(Nc4ccccc4OCC#N)n3)cc2CC1 [Example 1240, (2-{5-Chloro-2-[3-(2-methoxy-ethyl)-2,3,4,5-tetrahydro-1H-3-benzazepin-7-ylamino]-pyrimidin-4-ylamino}-phenoxy)-acetonitrile]

IC50 [1, 5]: < 0.1 µM
IC50 [2, 6]: 0.1 to 1 µM
Molecule: C#CCNC(=O)c1cccc(F)c1Nc1nc(Nc2ccc3c(c2)N(C(C)=O)CCCC3)ncc1Cl [Example 1490, 2-[2-(1-Acetyl-2,3,4,5-tetrahydro-1H-benzo[b]azepin-8-ylamino)-5-chloro-pyrimidin-4-ylamino]-3-fluoro-N-prop-2-ynyl-benzamide]

IC50 [1, 5]: 0.1 to 1 µM
IC50 [2, 6]: 0.1 to 1 µM
Molecule: C#CCNC(=O)c1cccc(F)c1Nc1nc(Nc2ccc3c(c2)N(CC)CC(O)(CO)CO3)ncc1Cl (stereo not drawn) [Example 1721, 2-[5-Chloro-2-(9-ethyl-7-hydroxy-7-hydroxymethyl-6,7,8,9-tetrahydro-5-oxa-9-aza-benzocyclohepten-2-ylamino)-pyrimidin-4-ylamino]-3-fluoro-N-prop-2-ynyl-benzamide]

IC50 [1, 5]: < 0.1 µM
IC50 [2, 6]: 0.1 to 1 µM
Molecule: CCN1CC(=O)N(CC)c2cc(Nc3ncc(Cl)c(Nc4c(C)csc4C(=O)NC)n3)ccc2C1 [Example 1874, 3-[5-chloro-2-(1,4-diethyl-2-oxo-2,3,4,5-tetrahydro-1H-benzo[e][1,4]diazepin-8-ylamino)-pyrimidin-4-ylamino]-4-methyl-thiophene-2-carboxylic acid methylamide]

IC50 [1, 3]: < 0.1 µM
IC50 [2, 4]: < 0.1 µM
Molecule: CNC(=O)c1ccccc1Nc1nc(Nc2ccc3c(c2)CNC(=O)CCN3C(=O)C(F)(F)F)ncc1Cl [Example 1301, 2-{5-Chloro-2-[4-oxo-1-(2,2,2-trifluoro-acetyl)-1,2,3,4,5,6-hexahydro-benzo[b][1,5]diazocin-8-ylamino]-pyrimidin-4-ylamino}-N-methyl-benzamide]

IC50 [1, 3]: 1 to 10 µM
IC50 [2, 4]: 0.1 to 1 µM
Molecule: 5-Chloro-N(4)-(2-fluoro-6-methanesulfonyl-phenyl)-(2-fluoro-6-methanesulfonyl-phenyl)2,3,4,5-tetrahydro-1H-3-benzazepin-7-yl]-pyrimidine-2,4-diamine [Example 1262]

IC50 [1, 3]: > 10 µM
IC50 [2, 4]: < 0.1 µM
Molecule: CCN1C(=O)[C@H](NC(=O)COC)CCc2c1ccc(Nc1ncc(Cl)c(N[C@H]3[C@@H](C(N)=O)[C@@H]4C=C[C@H]3C4)n1)c2OC (single isomer, unassigned) [Example 1350]

The remaining lines, values behind:

Molecule: CC1(C)CCC(=O)Nc2ccc(Nc3ncc(Cl)c(Nc4c(F)cccc4C(=O)NCCC#N)n3)cc21 [Example 1041, 2-[5-Chloro-2-(5,5-dimethyl-2-oxo-2,3,4,5-tetrahydro-1H-benzo[b]azepin-7-ylamino)-pyrimidin-4-ylamino]-N-(2-cyano-ethyl)-3-fluoro-benzamide]
IC50 [1, 3]: 0.1 to 1 µM
IC50 [2, 4]: < 0.1 µM

Molecule: Cn1ccnc1-c1ccccc1Nc1nc(Nc2ccc3c(c2)CCC(F)(F)CC3)ncc1Cl [Example 219, 5-Chloro-N*2*-(7,7-difluoro-6,7,8,9-tetrahydro-5H-benzocyclohepten-2-yl)-N*4*-[2-(1-methyl-1H-imidazol-2-yl)-phenyl]-pyrimidine-2,4-diamine]
IC50 [1, 7]: > 10 µM
IC50 [2, 8]: 0.1 to 1 µM

Molecule: CNC(=O)c1ccccc1Nc1nc(Nc2ccc3c(c2Cl)C2CCC(C3)N2)ncc1Cl (stereo not drawn) [Example 81, 2-[5-Chloro-2-(3-chloro-12-aza-tricyclo[7.2.1.0*2,7*]dodeca-2(7),3,5-trien-4-ylamino)-pyrimidin-4-ylamino]-N-methyl-benzamide]
IC50 [1, 7]: 0.1 to 1 µM
IC50 [2, 8]: < 0.1 µM

Molecule: CS(=O)(=O)N[C@@H]1CCCC[C@H]1Nc1nc(Nc2ccc3c(c2)C2CCC3CNC2)ncc1Cl (stereo partly drawn) [Example 293, N-{(1R,2R)-2-[2-(10-Aza-tricyclo[6.3.2.0*2,7*]trideca-2,4,6-trien-4-ylamino)-5-chloro-pyrimidin-4-ylamino]-cyclohexyl}-methanesulfonamide]
IC50 [1, 7]: 1 to 10 µM
IC50 [2, 8]: < 0.1 µM

Molecule: CN1CCNCc2cc(Nc3ncc(Cl)c(N[C@@H]4CCCC[C@H]4NS(C)(=O)=O)n3)ccc21 [Example 422, N-{(1R,2R)-2-[5-Chloro-2-(1-methyl-2,3,4,5-tetrahydro-1H-benzo[e][1,4]diazepin-7-ylamino)-pyrimidin-4-ylamino]-cyclohexyl}-methanesulfonamide]
IC50 [1, 7]: 1 to 10 µM
IC50 [2, 8]: < 0.1 µM

Molecule: COc1c(Nc2ncc(Cl)c(Nc3ccccc3S(=O)(=O)N3CCC(O)C3)n2)ccc2c1CCC(NCCO)CC2 (stereo not drawn) [Example 703, 1-(2-{5-Chloro-2-[7-(2-hydroxy-ethylamino)-1-methoxy-6,7,8,9-tetrahydro-5H-benzocyclohepten-2-ylamino]-pyrimidin-4-ylamino}-benzenesulfonyl)-pyrrolidin-3-ol]
IC50 [1, 9]: 0.1 to 1 µM
IC50 [2, 10]: < 0.1 µM

Molecule: COCCN1CCc2ccc(Nc3ncc(Cl)c(Nc4ccccc4-c4nnc(C)s4)n3)cc2CC1 [Example 974, 5-Chloro-N*2*-[3-(2-methoxy-ethyl)-2,3,4,5-tetrahydro-1H-benzo[d]azepin-7-yl]-N*4*-[2-(5-methyl-[1,3,4]thiadiazol-2-yl)-phenyl]-pyrimidine-2,4-diamine]
IC50 [1, 9]: 0.1 to 1 µM
IC50 [2, 10]: 0.1 to 1 µM

Molecule: CNC(=O)c1ccccc1Nc1nc(Nc2ccc3c(c2)OCCN(C)C3=O)ncc1Cl [Example 514, 2-[5-chloro-2-(4-methyl-5-oxo-2,3,4,5-tetrahydro-benzo[f][1,4]oxazepin-8-ylamino)-pyrimidin-4-ylamino]-N-methyl-benzamide]
IC50 [1, 9]: < 0.1 µM
IC50 [2, 10]: < 0.1 µM

Molecule: COc1cc2c(cc1Nc1ncc(F)c(Nc3ccc(N4CCN(C)CC4)cc3OC)n1)CCN(CCS(C)(=O)=O)CC2 [Example 805, 5-Fluoro-N*2*-[3-(2-methanesulfonyl-ethyl)-8-methoxy-2,3,4,5-tetrahydro-1H-benzo[d]azepin-7-yl]-N*4*-[2-methoxy-4-(4-methyl-piperazin-1-yl)-phenyl]-pyrimidine-2,4-diamine]
IC50 [1, 9]: > 10 µM
IC50 [2, 10]: < 0.1 µM

Molecule: COCCN1CCc2ccc(Nc3ncc(Cl)c(Nc4ccccc4-c4ncccc4C(F)(F)F)n3)cc2CC1 [Example 992, 5-Chloro-N*2*-[3-(2-methoxy-ethyl)-2,3,4,5-tetrahydro-1H-benzo[d]azepin-7-yl]-N*4*-[2-(3-trifluoromethyl-pyridin-2-yl)-phenyl]-pyrimidine-2,4-diamine]
IC50 [1, 9]: 1 to 10 µM
IC50 [2, 10]: < 0.1 µM

Molecule: CCN1CCSc2ccc(Nc3ncc(Cl)c(Nc4ccccc4C(=O)NC)n3)cc2C1 [Example 517, 2-[5-Chloro-2-(8-ethyl-6,7,8,9-tetrahydro-5-thia-aza-benzocyclohepten-2-ylamino)-pyrimidin-4-ylamino]-N-methyl-benzamide]
IC50 [1, 9]: < 0.1 µM
IC50 [2, 10]: < 0.1 µM

Molecule: CC1(C)CCCOc2c(Nc3ncc(Cl)c(Nc4ccccc4OCC#N)n3)cccc21 [Example 880, {2-[5-Chloro-2-(5,5-dimethyl-2,3,4,5-tetrahydro-benzo[b]oxepin-9-ylamino)-pyrimidin-4-ylamino]-phenoxy}-acetonitrile]
IC50 [1, 9]: > 10 µM
IC50 [2, 10]: 1 to 10 µM

Molecule: CC1(C)CCC(=O)Nc2ccc(Nc3ncc(Cl)c(Nc4ccccc4-c4ncccc4C(F)(F)F)n3)cc21 [Example 991, 7-{5-Chloro-4-[2-(3-trifluoromethyl-pyridin-2-yl)-phenylamino]-pyrimidin-2-ylamino}-5,5-dimethyl-1,3,4,5-tetrahydro-benzo[b]azepin-2-one]
IC50 [1, 9]: > 10 µM
IC50 [2, 10]: 0.1 to 1 µM

Source: patent US8148391B2 (Cephalon, Inc., priority 2006, dated 2012)
